Data set [1] can be described thus: Solubility of rucaparib camsylate crystal forms in simulated gastric juice. The class given is physicochemical. The note with it: for Solubility under low pH conditions: such as pH 1.2; for Solubility in SGF: about 1 mg in 1 mL, shaking 20 min, filtered, HPLC. Here is the method:
Determination of the solubility of rucaparib camsylate in simulated gastric juice. Weigh about 1 mg of the powder of Form A, Form B, Form C and Form D of rucaparib camsylate in a 2-mL tube, then add 1 mL of simulated gastric juice (Prepared by adding diluted hydrochloric acid 16.4 ml, 800 ml of water and 10 g of pepsin. After shaking, add water to volume of 1000 ml). After shaking the suspension for 20 min, it was filtered through a needle filter to obtain a clear solution. The rucaparib camsylate content in the solution was analyzed by HPLC method.

A short description of data set [2]: Stress stability of crystal form D (XRPD evaluation). The class given is physicochemical. As for the experimental part: In order to evaluate the physical stability of the crystal form D, experiments on the stress stability for the crystal form D were performed. The physical stability of the crystal form D under high temperature, high humidity and light stress conditions was investigated. The experimental conditions of the stress stability are as follows: [table] The crystal form D was placed in the above stress conditions. After sampling at the time point, the stability sample was evaluated by XRPD.

Structures can show the parent of a compound that is named as a salt.

Here are results for four compounds from patent US11352362B2, “Polymorph of rucaparib camsylate” (SHANGHAI BEGREAT PHARMATECH, priority 2018, dated 2022).

For the compound `CNCc1ccc(-c2[nH]c3cc(F)cc4c3c2CCNC4=O)cc1` [Form A, 8-fluoro-2-{4-[(methylamino)methyl]phenyl}-1,3,4,5-tetrahydro-6H-azepino[5,4,3-cd]indol-6-one ((1S,4R)-7,7-dimethyl-2-oxobicyclo[2.2.1]hept-1-yl) methanesulfonic acid salt], the “Solubility under low pH conditions” value in data set [1] is given as “low solubility”. For the same compound, in data set [1] (simulated gastric juice), the “Solubility in SGF” value is 100 µg/mL.
`CNCc1ccc(-c2[nH]c3cc(F)cc4c3c2CCNC4=O)cc1` [Form D, 8-fluoro-2-{4-[(methylamino)methyl]phenyl}-1,3,4,5-tetrahydro-6H-azepino[5,4,3-cd]indol-6-one ((1S,4R)-7,7-dimethyl-2-oxobicyclo[2.2.1]hept-1-yl) methanesulfonic acid salt]: the “Solubility in SGF” value in data set [1] (simulated gastric juice) was 310 µg/mL. Moreover, the “Solubility at 20 minutes compared with existing crystalline forms A, B and C” value in data set [1] (simulated gastric juice, low pH, 20 minutes) is “significantly higher”. For the same compound, the “Crystal form by XRPD after stress” value is “Form D” in data set [2] (Elevate temperature 60° C., 5 day); “Form D” in data set [2] (Elevate temperature 60° C., 10 day); “Form D” in data set [2] (High humidity 92.5% RH, 5 day); “Form D” in data set [2] (High humidity 92.5% RH, 10 day); “Form D” in data set [2] (Light stress 4500 lux, 5 day); “Form D” in data set [2] (Light stress 4500 lux, 10 day). Further, the “Physical stability under stress conditions” value in data set [2] (high temperature, high humidity and light stress conditions) was “stable”.
For `CNCc1ccc(-c2[nH]c3cc(F)cc4c3c2CCNC4=O)cc1` [Form B, 8-fluoro-2-{4-[(methylamino)methyl]phenyl}-1,3,4,5-tetrahydro-6H-azepino[5,4,3-cd]indol-6-one ((1S,4R)-7,7-dimethyl-2-oxobicyclo[2.2.1]hept-1-yl) methanesulfonic acid salt], the “Solubility under low pH conditions” value in data set [1] is “low solubility”. The “Solubility in SGF” value in data set [1] (simulated gastric juice) is 130 µg/mL.
The matching figures for `CNCc1ccc(-c2[nH]c3cc(F)cc4c3c2CCNC4=O)cc1` [Form C, 8-fluoro-2-{4-[(methylamino)methyl]phenyl}-1,3,4,5-tetrahydro-6H-azepino[5,4,3-cd]indol-6-one ((1S,4R)-7,7-dimethyl-2-oxobicyclo[2.2.1]hept-1-yl) methanesulfonic acid salt]: “low solubility” and 110 µg/mL.
